Patent US20220409617A1, “Drug Formulations and Methods of Treatment for Metabolic Disorders” (The Regents of the University of California, priority 2019, published 2022)
“Also recorded” adds a separate entry of the source.

Legend:
[1] = test system: mouse embryonic fibroblasts (MEFs); assay: Ceramide-induced (C16:0 CER, C2-ceramide) mitochondrial fragmentation; type: cell-based; details: MEFs; C16:0 CER 100 μM or C2-ceramide 50 μM 3 h; 893 5 μM, mdivi-1 50 μM, M1 5 μM, leflunomide 50 μM, P110 1 μM
Experimental: (§1) 3T3-L1 cells were maintained in DMEM with 10% FBS and 1% penicillin-streptomycin until induced to differentiate. 3T3-L1 pre-adipocytes were differentiated as described in (M. P. Valley, et al., Anal. Biochem. 505: 43-50, 2016, the disclosure of which is incorporated herein by reference) with slight modifications. Briefly, pre-adipocytes were grown to confluence. After 2 d, cells were induced with maintenance media containing 500 μM IBMX (15879, Sigma-Aldrich, St. Louis, Mo.), 1 μM dexamethasone (D4902, Sigma-Aldrich), 5 μg/mL bovine insulin (10516, Sigma-Aldrich), and 5 μM troglitazone (50-115-0786, ApexBio). Media was changed every 2-3 d for 7 d. On day 7 post-induction, media was changed to maintenance media+5 μg/mL bovine insulin. On day 9 post-induction, media was changed to maintenance media. Mature adipocytes were used 12-14 d post-induction for all experiments. LSL-KrasG12D mouse embryonic fibroblasts (MEFs) with and without Cre-mediated deletion of the STOP cassette were obtained from David Tuveson (Cold Spring Harbor Laboratory, Cold Spring Harbor N.Y., USA) in 2000. p53^flox/flox MEFs were derived in house (2015) from C57BL/6 mice using standard techniques and immortalized by transient expression of Cre recombinase and deletion of p53. MEFs were cultured and maintained in DMEM with 10% FBS and 1% penicillin-streptomycin. A549 cells were cultured in DMEM with 10% FBS, 1% penicillin-streptomycin and 1% sodium pyruvate. Stock solution of palmitic acid (ACROS Organics, cat # AC129702500) was prepared at 100 mM in ethanol. Palmitate (250 μM) was conjugated to 1% (w/v) fatty-acid free bovine serum albumin (Sigma, A8806) in DMEM at 37° C. for 20 min. For all immunofluorescence assays, 8,000 MEFs were seeded into 8-chamber slides (Cellvis, cat # C8-1.5H-N) 12-16 h before treatment. Cells were pre-treated with sphingolipid-like compound 893 (5 μM in water), myriocin (10 μM in methanol), fumonisin-B1 (30 μM in DMSO), or celastrol (500 nM in DMSO) for 3 h followed by a 3 h treatment with BSA-conjugated palmitate mixture or BSA alone. Where cells were treated with C2-ceramide (50 μM in DMSO) or C16:0 ceramide (100 μM in ethanol) for 3 h, cells were pre-treated with sphingolipid-like compound 893 for 1-3 h as indicated, mdivi-1 (50 μM in DMSO) for 1 h or 24 h, M1 (5 μM in DMSO) for 24 h, mdivi-1 and M1 together for 24 h, leflunomide (50 μM in methanol) for 1 h or 24 h, or with P110 (1 μM in water) for 1 h or 12 h. LSL or KRAS^G12D MEFs were treated with sphingolipid-like compound 893 (5 μM) for 6 h prior to fixation.
MEFs were washed twice with PBS and fixed with 4% paraformaldehyde for 10 min at RT. Cells were permeabilized with 0.3% Triton X-100 in blocking buffer containing 10% fetal bovine serum for 20 min at 37° C. followed by overnight incubation with mouse anti-citrate synthase (sc-390693, Santa Cruz Biotechnology; dilution, 1:200) or rabbit-anti-DRP1 at 1:100 (#8570, Cell Signaling Technology) at 4° C. Cells were then washed twice with PBS and incubated with AlexaFluor 488 goat anti-mouse (A28175, Invitrogen) or AlexaFluor 594 donkey anti-rabbit (A32754, Invitrogen) secondary antibodies at RT followed by 5 min incubation with 1 μg/ml DAPI and 2 washes in PBS. For NADH autofluorescence studies, mice were gavaged with vehicle or 120 mg/kg sphingolipid-like compound 893 at ZT8.5 (4-10.5 h before sacrifice between ZT12.5 and ZT18). Post sacrifice, livers were excised, washed 3× with PBS, placed in DMEM supplemented with 10% FBS and 1% penicillin-streptomycin, and immediately imaged. NADH/NADPH autofluorescence was detected with 740 nm excitation and 450±50 nm detectors using a Mai Tai two-photon laser. Fluorescence microscopy was performed on a Zeiss LSM 780 confocal using a 63× oil objective with a […] numerical aperture (NA) or using a Nikon TE2000-S inverted epifluorescence microscope with a 100× oil objective (1.3 NA) and a Photometrics CoolSNAP ES2 monochrome CCD camera. […]

[2] = test system: mouse embryonic fibroblasts (MEFs); type: cell-based; details: 3 h pre-treatment then palmitate 250 μM 3 h, 893 5 μM, myriocin 10 μM, fumonisin B1 30 μM, NAV-2729 12.5 μM, YM201636 800 nM, celastrol 500 nM
Experimental: Mitochondrial morphology was assessed by examining citrate synthesis expression under a high resolution microscopy. Specifically, the aspect ratio, branch length and roundness of mitochondria was assessed (FIG. 1).
LSL-KrasG12D mouse embryonic fibroblasts (MEFs) with and without Cre-mediated deletion of the STOP cassette were obtained from David Tuveson (Cold Spring Harbor Laboratory, Cold Spring Harbor N.Y., USA) in 2000. p53^flox/flox MEFs were derived in house (2015) from C57BL/6 mice using standard techniques and immortalized by transient expression of Cre recombinase and deletion of p53. MEFs were cultured and maintained in DMEM with 10% FBS and 1% penicillin-streptomycin. […] Stock solution of palmitic acid (ACROS Organics, cat # AC129702500) was prepared at 100 mM in ethanol. Palmitate (250 μM) was conjugated to 1% (w/v) fatty-acid free bovine serum albumin (Sigma, A8806) in DMEM at 37° C. for 20 min. For all immunofluorescence assays, 8,000 MEFs were seeded into 8-chamber slides (Cellvis, cat # C8-1.5H-N) 12-16 h before treatment. Cells were pre-treated with sphingolipid-like compound 893 (5 μM in water), myriocin (10 μM in methanol), fumonisin-B1 (30 μM in DMSO), or celastrol (500 nM in DMSO) for 3 h followed by a 3 h treatment with BSA-conjugated palmitate mixture or BSA alone.

A549 lung cancer cells = assay: KRAS-mediated mitochondrial fission in A549 cells; type: cell-based, human; details: A549, oncogenic KRAS; 893 5 μM 1 h, leflunomide 50 μM 24 h
Experimental: as §1, with “Where cells were treated with C2-ceramide (50 μM in DMSO) or C16:0 ceramide (100 μM in ethanol) for 3 h, cells were pre-treated with sphingolipid-like compound 893 for 1-3 h as indicated, mdivi-1 (50 μM in DMSO) for 1 h or 24 h, M1 (5 μM in DMSO) for 24 h, mdivi-1 and M1 together for 24 h, leflunomide (50 μM in methanol) for 1 h or 24 h, or with P110 (1 μM in water) for 1 h or 12 h. LSL or KRAS^G12D MEFs were treated with sphingolipid-like compound 893 (5 μM) for 6 h prior to fixation.” left out
MEFs were washed twice with PBS and fixed with 4% paraformaldehyde for 10 min at RT. […] NADH/NADPH autofluorescence was detected with 740 nm excitation and 450±50 nm detectors using a Mai Tai two-photon laser. Fluorescence microscopy was performed on a Zeiss LSM 780 confocal using a 63× oil objective with a […] numerical aperture (NA) or using a Nikon TE2000-S inverted epifluorescence microscope with a 100× oil objective (1.3 NA) and a Photometrics CoolSNAP ES2 monochrome CCD camera. […]

[3] = test system: C16:0 ceramide generation (CerS6); assay: C16:0 ceramide levels in palmitate-treated MEFs (UPLC-MS/MS); type: cell-based, mouse; details: MEFs; 3 h pre-treatment (893 5 μM, myriocin 10 μM, fumonisin B1 30 μM) then palmitate 250 μM 3 h
Experimental: Plasma pharmacokinetic analysis of sphingolipid-like compound 893 was performed by Pharmaron Corporation (Beijing, China). C16:0 ceramide levels were quantified in cells using the method described in (T. Kasumov, et al., Anal. Biochem. 401: 154-161, 2010, the disclosure of which is incorporated herein by reference) with minor modifications. Cultured cells were washed twice in PBS and scraped into 250 μL of HPLC grade water and flash frozen until time of analysis. On the day of analysis, samples were thawed, and an aliquot used for protein quantification. For C16:0 ceramide levels in mouse liver, 25 mg of tissue was homogenized in 1 ml of ice-cold PBS using a mechanical probe homogenizer (VWR, Radnor, Pa.), protein levels quantified, and 50 μl of the homogenate diluted with 150 μl HPLC-grade water for C16:0 ceramide analysis. Fifty ng of C17:0 ceramide prepared in ethanol (#22532, Cayman Chemical, Ann Arbor, Mich.) was added into 200 μL of the thawed cell suspension or liver homogenate as an internal standard to control for varying extraction efficiency; 750 μL of an ice-cold 1:2 chloroform/methanol mixture was then added. Samples were sonicated for 30 min and phase separation induced by the addition of 250 μL each of chloroform and HPLC-grade water. Samples were centrifuged at 4° C. for 10 min and the lower lipid phase transferred to a clean tube. The remaining protein and aqueous layers were re-extracted with an additional 500 μL of chloroform. Lipid phases were combined and then dried under vacuum. Dried extract was re-constituted in 100% acetonitrile immediately before analysis. Samples were analyzed by ultra-performance liquid chromatography tandem mass spectrometry (UPLC-MS/MS) using a Waters Micromass Quattro Premier XE equipped with a Waters ACQUITY BEH C4 column (Waters Corp.). Samples were resolved starting at 60% mobile phase A (10 mM ammonium acetate and 0.05% formic acid in water) to 98% mobile phase B (60:40 acetonitrile:isopropanol) over 3 min with a linear gradient, held at 98% B for 1 min, then the column was equilibrated with 60% A for 1 min. The mass spectrometer was operated in positive ion mode with the following parameters: cone voltage 20 V, source temperature 125° C., desolvation temperature 400° C. Ion transition channels for MS/MS were 538→264 for C16:0 ceramide and 552→264 for C17:0 ceramide, both with a dwell time of 285 ms. Standard curves prepared from C16:0 ceramide (#860516, Avanti Polar Lipids, Alabaster, Ala.) dissolved in ethanol were used for quantitation and were linear from 4.1 nM-1,000 nM, with an R^2 of 0.98 or greater.
3T3-L1 cells were maintained in DMEM with 10% FBS and 1% penicillin-streptomycin until induced to differentiate. […]

Compound	Protection from ceramide-induced mitochondrial fragmentation [1]	Protection from palmitate-induced mitochondrial fragmentation (aspect ratio, branch length, roundness) [2]	Reversal of mitochondrial fragmentation / tubularity in A549 cells (A549 lung cancer cells)	Palmitate-induced C16:0 ceramide production [3]
CC(=NNc1c(Cl)cc(Cl)cc1Cl)c1cc(Cl)ccc1O [M1]	neither compound alone or in combination prevented ceramide- or KRAS-induced mitochondrial fragmentation			
CCCC[C@@H](C)[C@@H](OC(=O)C[C@@H](CC(=O)O)C(=O)O)[C@H](C[C@@H](C)C[C@H](O)CCCC[C@@H](O)C[C@H](O)[C@H](C)N)OC(=O)C[C@@H](CC(=O)O)C(=O)O [fumonisin B1]		prevented palmitate-induced morphological changes	did not increase mitochondrial tubularity in A549 cells	Blocking ceramide production
COc1cc(-n2c(=S)[nH]c3ccccc3c2=O)c(Cl)cc1Cl [mdivi-1]	failed to prevent C16:0 ceramide-induced mitochondrial fragmentation; also recorded: neither compound alone or in combination prevented ceramide- or KRAS-induced mitochondrial fragmentation			
CCCCCCC(=O)CCCCCC/C=C/C[C@@H](O)[C@H](O)[C@@](N)(CO)C(=O)O [myriocin]		prevented palmitate-induced morphological changes	did not increase mitochondrial tubularity in A549 cells	Blocking ceramide production
NAV-2729		partial protection from palmitate-induced mitochondrial fragmentation		
